Measured values as given in patent EP0311100A2, “Derivatives of dideoxycytidine, their preparation and pharmaceutical use” (F. HOFFMANN-LA ROCHE AG, priority 1987, dated 1989).

Key:
[1] = apparent partition coefficient n-octanol / phosphate buffer pH 7,4 (method of Hansch et al.); format: physicochemical; conditions: n-octanol / aqueous phosphate buffer pH 7,4
Source text: Wie oben erwähnt, zeigen die erfindungsgemässen Verbindungen grössere Stabilität und Lipophilität als bekannte Nucleotidderivate. In der nachstehenden Tabelle I sind für ausgewählte erfindungsgemässe Verbindungen die gemessenen Verteilungskoeffizienten angegeben, die wiederum ein Anzeichen für die Lipophilität der Verbindung darstellt. Tabelle I

[2] = stability in human plasma at 37°C (HPLC); format: in vitro ADME; conditions: human plasma 37°C; for % N-Acyl (2b): incubated 2b; for % N, O-Diacyl (1c): incubated 1c; for % N-Acyl (2a): incubated 2a; for % N, O-Diacyl (1a): incubated 1a; for % N, O-Diacyl (1b): incubated 1b; for % N-Acyl (2c): incubated 2c
Source text: (§1) Die Stabilität ausgewählter erfindungsgemässer Verbindungen in Methanol/Wasser oder menschlichem Blutplasma wurde wie nachstehend angegeben geprüft:
Die folgenden Verbindungen wurden auf Stabilität im menschlichen Plasma geprüft:
(§2) Zunächst wurden die HPLC-Bedingungen für die Probenmessung bestimmt, d.h. eine Revers-Phasen C-18-Säule mit einem Lösungsmittelsystem mit variierenden Verhältnissen von Methanol: […] Natriumphosphat, pH 6,8.
(§3) Danach wurde die maximale UV-Absorption für jede Probe und die grösste Stabilität unter Laborbedingungen für jede Probe in Methanol:Wasser bestimmt. Danach wurde die Stabilität im menschlichen Plasma untersucht.
Das im Experiment verwendete menschliche Plasma wurde bis zur Verwendung eingefroren.
(§4) Die HPLC-Apparatur war ein Gradientsystem bestehend aus einem Modell 1601 Gradient Master, einer Constametric I Pumpe und einer Constametric III Pumpe. Weiterhin wurden ein LDC-Spectromometer III als Detektor und ein Waters 712B Wisp Autoinjektor verwendet. Allen Proben wurde eine ODS-3 RAC II, 5 µ, 15 cm x 4,0 mm ID-Säule (Whatmann, Clifton, N.J.) verwendet. Das Lösungsmittelsystem bestand aus Methanol: 0,001M NaH₂PO₄ (pH 6,8) in den folgenden Proportionen: 1b, 2b - 50:50; 1a, 2a - 43:57; 1c, 2c - 50:50.
Jede Verbindung wurde in ein konisches 15 ml Teströhrchen eingewogen und in DMSO gelöst, so dass eine Vorratslösung von 10 mg/ml erhalten wurde. Die Proben für die Standardkurve wurden durch Verdünnen der DMSO-Vorratslösung mit der mobilen Phasen wie folgt hergestellt: […]
(§5) Die chromatographischen Daten wurden mit einem Nelson 3000 Datasystem gesammelt. Peakhöhen der Kalibrierungs-Standards jeder Verbindung wurden gemessen und gegen bekannte Konzentrationen aufgetragen. Eine lineare Kurve der kleinsten Quadrate (ungewichtet) wurde berechnet und alle Probenkonzentrationen wurden aus dieser Kurve rückgerechnet. Die Resultate sind in den Tabellen II-VIII zusammengestellt. Tabelle II

[3] = stability in methanol/water (HPLC); format: physicochemical
Source text: as §1, §2, §3, §4
Jede Verbindung wurde in ein konisches 15 ml Teströhrchen eingewogen und in DMSO gelöst, so dass eine Vorratslösung von 10 mg/ml erhalten wurde. Die Proben für die Standardkurve wurden durch Verdünnen der DMSO-Vorratslösung mit der mobilen Phasen wie folgt hergestellt:
as §5

CCCCCCCCCCCCCCCC(=O)Nc1ccn([C@H]2CC[C@@H](COC(=O)CCCCCCCCCCCCCCC)O2)c(=O)n1 [N-Palmitoyl 2′,3′-dideoxycytidin 5′-palmitoat]
Scheinbarer Verteilungskoeffizient zwischen n-Octanol und Phosphatpuffer pH 7,4 [1]: > 1000

CC(C)C(=O)Nc1ccn([C@H]2CC[C@@H](CO)O2)c(=O)n1 [Verbindung 2b, N-(2-Methylpropanoyl) 2′,3′-dideoxycytidin]
% N-Acyl (2b) ([2]; time 0 (Tage)): 83%
% N-Acyl (2b) ([2]; time 0,5 (Tage)): 88%
% N-Acyl (2b) ([2]; time 1 (Tage)): 61%
% N-Acyl (2b) ([2]; time 2 (Tage)): 78%
% N-Acyl (2b) ([2]; time 4 (Tage)): 89%
% N-Acyl (2b) ([2]; time 24 (Tage)): 92%
Scheinbarer Verteilungskoeffizient zwischen n-Octanol und Phosphatpuffer pH 7,4 [1]: 2.38
% N-Acyl (2a,2b, 2c) ([3]; time 0 days): 100%
% N-Acyl (2a,2b, 2c) ([3]; time 14 days): 83%
% O-Acyl- (3a,3b,3c) ([3]; time 14 days): 17%
% ddC 4 ([3]; time 14 days): 2%

CCCC(=O)Nc1ccn([C@H]2CC[C@@H](COC(=O)CCC)O2)c(=O)n1 [Verbindung 1c, N-Butanoyl 2′,3′-dideoxycytidin 5′-butanoat]
% N, O-Diacyl (1c) ([2]; time 0 (Tage)): 64%
% N, O-Diacyl (1c) ([2]; time 0,5 (Tage)): 23%
% N, O-Diacyl (1c) ([2]; time 1 (Tage)): 10%
% N, O-Diacyl (1c) ([2]; time 2 (Tage)): 7%
% N, O-Diacyl (1c) ([2]; time 4 (Tage)): 6%
% N, O-Diacyl (1c) ([2]; time 24 (Tage)): 6%
Scheinbarer Verteilungskoeffizient zwischen n-Octanol und Phosphatpuffer pH 7,4 [1]: 70.0
% N, O-Diacyl (1a,1b,1c) ([3]; time 0 days): 100%
% N, O-Diacyl (1a,1b,1c) ([3]; time 14 days): 43%
% N-Acyl (2a,2b, 2c) ([3]; time 14 days): 20%
% O-Acyl- (3a,3b,3c) ([3]; time 14 days): 32%
% ddC 4 ([3]; time 14 days): 25%

CC(=O)OC[C@@H]1CC[C@H](n2ccc(N)nc2=O)O1 [2′,3′-Dideoxycytidin 5′-acetat]
Scheinbarer Verteilungskoeffizient zwischen n-Octanol und Phosphatpuffer pH 7,4 [1]: 0.14

CC(=O)Nc1ccn([C@H]2C=C[C@@H](COC(C)=O)O2)c(=O)n1 [N-Acetyl 2′,3′-didehydro-2′,3′-dideoxycytidin 5′-acetat]
Scheinbarer Verteilungskoeffizient zwischen n-Octanol und Phosphatpuffer pH 7,4 [1]: 0.39

CCC(=O)Nc1ccn([C@H]2CC[C@@H](CO)O2)c(=O)n1 [Verbindung 2a, N-Propanoyl 2′,3′-dideoxycytidin]
% N-Acyl (2a) ([2]; time 0 (Tage)): 97%
% N-Acyl (2a) ([2]; time 0,5 (Tage)): 87%
% N-Acyl (2a) ([2]; time 1 (Tage)): 85%
% N-Acyl (2a) ([2]; time 2 (Tage)): 96%
% N-Acyl (2a) ([2]; time 4 (Tage)): 99%
% N-Acyl (2a) ([2]; time 24 (Tage)): 80%
Scheinbarer Verteilungskoeffizient zwischen n-Octanol und Phosphatpuffer pH 7,4 [1]: 0.83
% N-Acyl (2a,2b, 2c) ([3]; time 0 days): 100%
% N-Acyl (2a,2b, 2c) ([3]; time 14 days): 56%
% ddC 4 ([3]; time 14 days): 28%

CC(=O)Nc1ccn([C@H]2CC[C@@H](CO)O2)c(=O)n1 [N-Acetyl 2′,3′-dideoxycytidin]
Scheinbarer Verteilungskoeffizient zwischen n-Octanol und Phosphatpuffer pH 7,4 [1]: 0.22

CCC(=O)Nc1ccn([C@H]2CC[C@@H](COC(=O)CC)O2)c(=O)n1 [Verbindung 1a, N-Propanoyl 2′,3′-dideoxycytidin 5′-propanoat]
% N, O-Diacyl (1a) ([2]; time 0 (Tage)): 86%
% N, O-Diacyl (1a) ([2]; time 0,5 (Tage)): 70%
% N, O-Diacyl (1a) ([2]; time 1 (Tage)): 40%
% N, O-Diacyl (1a) ([2]; time 2 (Tage)): 17%
% N, O-Diacyl (1a) ([2]; time 4 (Tage)): 10%
% N, O-Diacyl (1a) ([2]; time 24 (Tage)): 1%
Scheinbarer Verteilungskoeffizient zwischen n-Octanol und Phosphatpuffer pH 7,4 [1]: 6.8
% N, O-Diacyl (1a,1b,1c) ([3]; time 0 days): 100%
% N, O-Diacyl (1a,1b,1c) ([3]; time 14 days): 43%
% N-Acyl (2a,2b, 2c) ([3]; time 14 days): 18%
% O-Acyl- (3a,3b,3c) ([3]; time 14 days): 27%

O=C(Nc1ccn([C@H]2CC[C@@H](CO)O2)c(=O)n1)c1ccccc1 [N-Benzoyl 2′,3′-dideoxycytidin]
Scheinbarer Verteilungskoeffizient zwischen n-Octanol und Phosphatpuffer pH 7,4 [1]: 15.0

Nc1ccn([C@H]2CC[C@@H](CO)O2)c(=O)n1 [2′,3′-Dideoxycytidin, reference compound]
Scheinbarer Verteilungskoeffizient zwischen n-Octanol und Phosphatpuffer pH 7,4 [1]: 0.05

CC(=O)Nc1ccn([C@H]2CC[C@@H](COC(C)=O)O2)c(=O)n1 [N-Acetyl 2′,3′-dideoxycytidin 5′-acetat]
Scheinbarer Verteilungskoeffizient zwischen n-Octanol und Phosphatpuffer pH 7,4 [1]: 0.62

Nc1ccn([C@H]2C=C[C@@H](CO)O2)c(=O)n1 [2′,3′-Didehydro-2′,3′-dideoxycytidin, reference compound]
Scheinbarer Verteilungskoeffizient zwischen n-Octanol und Phosphatpuffer pH 7,4 [1]: 0.03

CC(C)C(=O)Nc1ccn([C@H]2CC[C@@H](COC(=O)C(C)C)O2)c(=O)n1 [Verbindung 1b, N-(2-Methylpropanoyl) 2′,3′-dideoxycytidin 5′-(2-methylpropanoat)]
% N, O-Diacyl (1b) ([2]; time 0 (Tage)): 95%
% N, O-Diacyl (1b) ([2]; time 0,5 (Tage)): 83%
% N, O-Diacyl (1b) ([2]; time 1 (Tage)): 38%
% N, O-Diacyl (1b) ([2]; time 2 (Tage)): 9%
% N, O-Diacyl (1b) ([2]; time 4 (Tage)): 4%
% N, O-Diacyl (1b) ([2]; time 24 (Tage)): 3%
Scheinbarer Verteilungskoeffizient zwischen n-Octanol und Phosphatpuffer pH 7,4 [1]: 58.0
% N, O-Diacyl (1a,1b,1c) ([3]; time 0 days): 100%
% N, O-Diacyl (1a,1b,1c) ([3]; time 14 days): 73%
% N-Acyl (2a,2b, 2c) ([3]; time 14 days): 8%
% O-Acyl- (3a,3b,3c) ([3]; time 14 days): 17%
% ddC 4 ([3]; time 14 days): 2%

CCCC(=O)Nc1ccn([C@H]2CC[C@@H](CO)O2)c(=O)n1 [Verbindung 2c, N-Butanoyl 2′,3′-dideoxycytidin]
% N-Acyl (2c) ([2]; time 0 (Tage)): 101%
% N-Acyl (2c) ([2]; time 0,5 (Tage)): 95%
% N-Acyl (2c) ([2]; time 1 (Tage)): 92%
% N-Acyl (2c) ([2]; time 2 (Tage)): 90%
% N-Acyl (2c) ([2]; time 4 (Tage)): 85%
% N-Acyl (2c) ([2]; time 24 (Tage)): 77%
Scheinbarer Verteilungskoeffizient zwischen n-Octanol und Phosphatpuffer pH 7,4 [1]: 2.67
% N-Acyl (2a,2b, 2c) ([3]; time 0 days): 100%
% N-Acyl (2a,2b, 2c) ([3]; time 14 days): 76%
% ddC 4 ([3]; time 14 days): 20%
